Data published in patent US20110105515A1, “TARGETING THE ONCOPROTEIN NUCLEOPHOSMIN” (President and Fellows of Harvard College, priority 2007, published 2011).

Experiments:
SK-MEL-28 = SK-MEL-28 (Melanoma), 48 hours, SRB
HL-60(TB) = HL-60(TB) (Leukemia), 48 hours, SRB
U251 = U251 (CNS Cancer), 48 hours, SRB
BT-549 = BT-549 (Breast Cancer), 48 hours, SRB
NCI-H460 = NCI-H460 (Non-Small Cell Lung Cancer), 48 hours, SRB
SK-OV-3 = SK-OV-3 (Ovarian Cancer), 48 hours, SRB
KM12 = test: cells; conditions: Homo sapiens, KM12, 48 h; for CC50: read-out: LC50
MDA-MB-435 = test: cells; conditions: Homo sapiens, MDA-MB-435, 48 h; for CC50: read-out: LC50
OVCAR-5 = test: cells; conditions: Homo sapiens, OVCAR-5, 48 h; for CC50: read-out: LC50
K-562 = K-562 (Leukemia), 48 hours, SRB
UO-31 = UO-31 (Renal Cancer), 48 hours, SRB
UACC-257 = UACC-257 (Melanoma), 48 hours, SRB
MDA-MB-231/ATCC = MDA-MB-231/ATCC (Breast Cancer), 48 hours, SRB
DU-145 = DU-145 (Prostate Cancer), 48 hours, SRB
HCT-15 = test: cells; conditions: Homo sapiens, HCT-15, 48 h; for CC50: read-out: LC50
CCRF-CEM = CCRF-CEM (Leukemia), 48 hours, SRB
HCC-2998 [1] = test: cells; conditions: Homo sapiens, HCC 2998, 48 h; for CC50: read-out: LC50
UACC62 = UACC62 (Melanoma), 48 hours, SRB
OVCAR-3 = OVCAR-3 (Ovarian Cancer), 48 hours, SRB
RPMI-8226 = RPMI-8226 (Leukemia), 48 hours, SRB
786-0 = 786-0 (Renal Cancer), 48 hours, SRB
MCF7 = MCF7 (Breast Cancer), 48 hours, SRB
COLO 205 = COLO 205 (Colon Cancer), 48 hours, SRB
HCC-2998 [2] = conditions: HCC-2998 (Colon Cancer), 48 hours, SRB
HOP-62 = HOP-62 (Non-Small Cell Lung Cancer), 48 hours, SRB
T-47D = T-47D (Breast Cancer), 48 hours, SRB
HCT-116 = HCT-116 (Colon Cancer), 48 hours, SRB
M14 = M14 (Melanoma), 48 hours, SRB
NCI-H226 = NCI-H226 (Non-Small Cell Lung Cancer), 48 hours, SRB
HOP-92 = test: NCI 60 cell lines, SRB assay: HOP-92
SK-MEL-2 = SK-MEL-2 (Melanoma), 48 hours, SRB

Cc1cc(C)cc(-c2ccc3c(c2)[N+]([O-])=C2C3=C[C@@]34NC(=O)C5(CCCN5C3=O)CC4C2(C)C)c1 (stereo partly drawn) [Biphenyl Analogue]
TGI (SK-MEL-28): 1.08 µM | TGI (HL-60(TB)): 0.655 µM | TGI (U251): 273 nM | TGI (BT-549): 0.379 µM | TGI (NCI-H460): 1.18 µM | TGI (SK-OV-3): 1.19 µM | GI50 (KM12): 257 nM | CC50 (KM12): 3.91 µM | GI50 (MDA-MB-435): 166 nM | CC50 (MDA-MB-435): 1.41 µM | GI50 (OVCAR-5): 368 nM | CC50 (OVCAR-5): 4.21 µM | TGI (K-562): 0.358 µM | TGI (UO-31): 0.731 µM | TGI (UACC-257): 1.36 µM | TGI (MDA-MB-231/ATCC): 1.05 µM | TGI (DU-145): 0.813 µM | GI50 (HCT-15): 146 nM | CC50 (HCT-15): 710 nM | TGI (CCRF-CEM): 421 nM | GI50 (HCC-2998 [1]): 269 nM | CC50 (HCC-2998 [1]): 3.5 µM | TGI (UACC62): 0.471 µM | TGI (OVCAR-3): 0.395 µM | TGI (RPMI-8226): 48.6 nM | TGI (786-0): 0.398 µM | TGI (MCF7): 0.984 µM | TGI (COLO 205): 259 nM | TGI (HCC-2998 [2]): 1.06 µM | TGI (HOP-62): 3.32 µM | TGI (T-47D): 330 nM | TGI (HCT-116): 0.377 µM | TGI (M14): 0.556 µM | TGI (NCI-H226): 0.707 µM

[2H]On1c2c(c3ccc4c(c31)C=CC(C)(C)O4)C(OC([2H])([2H])[2H])[C@@]13NC(=O)C4(CCCN4C1=O)CC3C2(C)C (stereo partly drawn) [Deuterated Methanol Adduct]
TGI (SK-MEL-28): 1.82 µM | TGI (HL-60(TB)): 1.45 µM | TGI (U251): 1370 nM | TGI (BT-549): 1.99 µM | TGI (NCI-H460): 3.6 µM | TGI (SK-OV-3): 2.16 µM | GI50 (KM12): 1270 nM | CC50 (KM12): 5.02 µM | GI50 (MDA-MB-435): 395 nM | CC50 (MDA-MB-435): 4.72 µM | GI50 (OVCAR-5): 586 nM | CC50 (OVCAR-5): 4.49 µM | TGI (K-562): 3.07 µM | TGI (UO-31): 1.84 µM | TGI (UACC-257): 1.89 µM | TGI (HOP-92; HOP-92 (Non-Small Cell Lung Cancer), 48 hours, SRB): 1.3 µM | GI50 (HOP-92; Homo sapiens, HOP-92, 48 h): 222 nM | CC50 (HOP-92; Homo sapiens, HOP-92, 48 h, read-out: LC50): 4.62 µM | TGI (MDA-MB-231/ATCC): 1.83 µM | TGI (DU-145): 3.12 µM | GI50 (HCT-15): 548 nM | CC50 (HCT-15): 4230 nM | TGI (CCRF-CEM): 704 nM | GI50 (HCC-2998 [1]): 692 nM | CC50 (HCC-2998 [1]): 4.71 µM | TGI (UACC62): 1.92 µM | TGI (SK-MEL-2): 2.28 µM | TGI (OVCAR-3): 1.81 µM | TGI (RPMI-8226): 298 nM | TGI (786-0): 2.46 µM | TGI (MCF7): 1.33 µM | TGI (COLO 205): 1450 nM | TGI (HCC-2998 [2]): 2.01 µM | TGI (HOP-62): 7.03 µM | TGI (T-47D): 1380 nM | TGI (HCT-116): 1.97 µM | TGI (M14): 2.5 µM | TGI (NCI-H226): 1.7 µM
